Source: patent US11530221B2, “Pyrimido[4,5-d]pyrimidin-2-one derivatives as protein kinase inhibitors” (KOREA INSTITUTE OF SCIENCE AND TECHNOLOGY, priority 2019, dated 2022)
Read-outs that look alike come from different tables or passages of the source. Square brackets hold non-standard residues; d marks the D form. Peptide text beside a SMILES is read from it. * marks the point of attachment. X1 = Cc1ccc(Nc2ncc3c(n2)N(C)C(=O)N(c2cc(C(=O)*)ccc2C)C3)cn1; Ac4c = NC1(C(=O)O)CCC1; Ac3c = NC1(C(=O)O)CC1; Aib = CC(C)(N)C(=O)O

How the values were obtained:
LCK = LCK (Homo sapiens, UniProt P06239); assay: IC50 inhibitory activity against LCK kinase; format: biochemical
Description: (§1) IC50 values were calculated by measuring the inhibitory activity against LCK, c-Src, p38a/MAPK14, ABL1, DDR1 and FGR kinases of the compounds of the present invention.

c-Src = c-Src (Homo sapiens, UniProt P12931); assay: IC50 inhibitory activity against c-Src kinase; format: biochemical
Description: as §1

Chain of c-Src (P12931 whole entry): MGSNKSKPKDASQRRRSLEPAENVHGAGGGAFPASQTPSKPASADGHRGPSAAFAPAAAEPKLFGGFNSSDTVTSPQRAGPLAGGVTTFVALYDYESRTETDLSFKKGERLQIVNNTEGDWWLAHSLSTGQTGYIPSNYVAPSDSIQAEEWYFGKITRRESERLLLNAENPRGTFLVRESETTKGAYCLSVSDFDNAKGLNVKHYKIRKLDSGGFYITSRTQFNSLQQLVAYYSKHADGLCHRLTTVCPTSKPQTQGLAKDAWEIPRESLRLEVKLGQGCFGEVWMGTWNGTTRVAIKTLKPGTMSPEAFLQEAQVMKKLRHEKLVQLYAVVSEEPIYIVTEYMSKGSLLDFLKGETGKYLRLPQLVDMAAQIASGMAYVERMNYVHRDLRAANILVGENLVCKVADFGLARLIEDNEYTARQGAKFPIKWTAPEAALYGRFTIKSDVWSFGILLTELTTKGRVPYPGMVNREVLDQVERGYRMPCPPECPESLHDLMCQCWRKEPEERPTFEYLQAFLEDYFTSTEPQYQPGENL
Chain of LCK (P06239 whole entry): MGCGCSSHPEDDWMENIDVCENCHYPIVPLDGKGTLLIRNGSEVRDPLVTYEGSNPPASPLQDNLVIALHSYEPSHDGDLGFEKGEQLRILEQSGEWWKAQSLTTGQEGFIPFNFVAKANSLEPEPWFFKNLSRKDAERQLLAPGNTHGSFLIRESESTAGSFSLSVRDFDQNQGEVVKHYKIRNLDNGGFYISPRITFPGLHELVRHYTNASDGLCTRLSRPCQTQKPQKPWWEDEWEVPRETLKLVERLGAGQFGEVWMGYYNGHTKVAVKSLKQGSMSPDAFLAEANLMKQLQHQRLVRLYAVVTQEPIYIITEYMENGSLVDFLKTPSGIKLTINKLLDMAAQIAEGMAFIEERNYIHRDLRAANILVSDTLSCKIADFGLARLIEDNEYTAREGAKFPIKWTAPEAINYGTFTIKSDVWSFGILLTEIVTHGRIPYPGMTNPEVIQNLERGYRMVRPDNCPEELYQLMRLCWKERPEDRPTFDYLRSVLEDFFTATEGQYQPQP

IC50 (LCK; read-out: LCK IC50) [nM]	IC50 (c-Src; read-out: c-Src IC50) [nM]	SMILES	IC50 (LCK) [nM]	IC50 (c-Src) [nM]
–	–	Cc1ccc(Nc2ncc3c(n2)N(C)C(=O)N(c2cc(C(=O)N[C@H](C(=O)N4CCC[C@H]4C(=O)NC4(C(=O)N[C@@H](CC(C)C)C(=O)N(C)C)CCC4)C(C)C)ccc2C)C3)cn1 [Example 12, (S)—N-(1-(((S)-1-(dimethylamino)-4-methyl-1-oxopentan-2-yl)carbamoyl)cyclobutyl)-1-((4-methyl-3-(1-methyl-7-((6-methylpyridin-3-yl)amino)-2-oxo-1,4-dihydropyrimido[4,5-d]pyrimidin-3(2H)-yl)benzoyl)-L-valyl)pyrrolidine-2-carboxamide] (X1-VP[Ac4c]L-NMe2)	1 to 200	> 600
1 to 200	400 to 600	Cc1ccc(Nc2ncc3c(n2)N(C)C(=O)N(c2cc(C(=O)N[C@@H](Cc4ccccc4)C(=O)N4CCC[C@@H]4C(=O)N[C@H](C(=O)N[C@H](C)c4ccccc4)C(C)C)ccc2C)C3)cn1 [Example 7, (R)—N—((S)-3-methyl-1-oxo-1-(((R)-1-phenylethyl)amino)butan-2-yl)-1-((4-methyl-3-(1-methyl-7-((6-methylpyridin-3-yl)amino)-2-oxo-1,4-dihydropyrimido[4,5-d]pyrimidin-3(2H)-yl)benzoyl)-L-phenylalanyl)pyrrolidine-2-carboxamide]	–	–
1 to 200	1 to 200	Cc1ccc(Nc2ncc3c(n2)N(C)C(=O)N(c2cc(NC(=O)c4ccc5c(c4)NC(=O)[C@H](Cc4cccc(F)c4)N=C5c4ccccc4)ccc2C)C3)cn1 [Example 27, (S)-3-(3-fluorobenzyl)-N-(4-methyl-3-(1-methyl-7-((6-methylpyridin-3-yl)amino)-2-oxo-1,4-dihydropyrimido[4,5-d]pyrimidin-3(2H)-yl)phenyl)-2-oxo-5-phenyl-2,3-dihydro-1H-benzo[e][1,4]diazepine-8-carboxamide]	–	–
1 to 200	1 to 200	Cc1ccc(Nc2ncc3c(n2)N(C)C(=O)N(c2cc(NC(=O)c4ccc5c(c4)NC(=O)[C@H](Cc4ccc(F)cc4)N=C5c4ccccc4)ccc2C)C3)cn1 [Example 28, (S)-3-(4-fluorobenzyl)-N-(4-methyl-3-(1-methyl-7-((6-methylpyridin-3-yl)amino)-2-oxo-1,4-dihydropyrimido[4,5-d]pyrimidin-3(2H)-yl)phenyl)-2-oxo-5-phenyl-2,3-dihydro-1H-benzo[e][1,4]diazepine-8-carboxamide]	–	–
> 600	> 600	Cc1ccc(Nc2ncc3c(n2)N(C)C(=O)N(c2cc(C(=O)N[C@H](C(=O)N4CCC[C@@H]4C(=O)NC(C)(C)C(=O)N[C@H](C(=O)N(C)C)C(C)C)C(C)C)ccc2C)C3)cn1 [Example 23, (R)—N-(1-(((S)-1-(dimethylamino)-3-methyl-1-oxobutan-2-yl)amino)-2-methyl-1-oxopropan-2-yl)-1-((4-methyl-3-(1-methyl-7-((6-methylpyridin-3-yl)amino)-2-oxo-1,4-dihydropyrimido[4,5-d]pyrimidin-3(2H)-yl)benzoyl)-L-valyl)pyrrolidine-2-carboxamide] (X1-V[dP][Aib]V-NMe2)	–	–
–	–	Cc1ccc(Nc2ncc3c(n2)N(C)C(=O)N(c2cc(C(=O)N[C@H](C(=O)N4CCC[C@@H]4C(=O)NC4(C(=O)N[C@@H](CC(C)C)C(=O)N(C)C)CC4)C(C)C)ccc2C)C3)cn1 [Example 3, (R)—N-(1-(((S)-1-(dimethylamino)-4-methyl-1-oxopentan-2-yl)carbamoyl)cyclopropyl)-1-((4-methyl-3-(1-methyl-7-((6-methylpyridin-3-yl)amino)-2-oxo-1,4-dihydropyrimido[4,5-d]pyrimidin-3(2H)-yl)benzoyl)-L-valyl)pyrrolidine-2-carboxamide] (X1-V[dP][Ac3c]L-NMe2)	1 to 200	> 600
400 to 600	> 600	Cc1ccc(Nc2ncc3c(n2)N(C)C(=O)N(c2cc(C(=O)N[C@H](C(=O)N4CCC[C@@H]4C(=O)N[C@H](C(=O)N[C@H](C)c4ccccc4)C(C)C)C(C)C)ccc2C)C3)cn1 [Example 8, (R)—N—((S)-3-methyl-1-oxo-1-(((R)-1-phenylethyl)amino)butan-2-yl)-1-((4-methyl-3-(1-methyl-7-((6-methylpyridin-3-yl)amino)-2-oxo-1,4-dihydropyrimido[4,5-d]pyrimidin-3(2H)-yl)benzoyl)-L-valyl)pyrrolidine-2-carboxamide]	–	–
1 to 200	1 to 200	Cc1ccc(Nc2ncc3c(n2)N(C)C(=O)N(c2cc(C(=O)N[C@H](C(=O)N4CCC[C@H]4C(=O)N[C@@H](Cc4ccccc4)C(=O)N[C@@H](CC(C)C)C(=O)N(C)C)C(C)C)ccc2C)C3)cn1 [Example 11] (X1-VPFL-NMe2)	–	–
–	–	Cc1ccc(Nc2ncc3c(n2)N(C)C(=O)N(c2cc(C(=O)N[C@@H](C)C(=O)N4CCC[C@H]4C(=O)NC(C)(C)C(=O)N[C@H](C(=O)N(C)C)C(C)C)ccc2C)C3)cn1 [Example 25, (S)—N-(1-(((S)-1-(dimethylamino)-3-methyl-1-oxobutan-2-yl)amino)-2-methyl-1-oxopropan-2-yl)-1-((4-methyl-3-(1-methyl-7-((6-methylpyridin-3-yl)amino)-2-oxo-1,4-dihydropyrimido[4,5-d]pyrimidin-3(2H)-yl)benzoyl)-L-alanyl)pyrrolidine-2-carboxamide] (X1-AP[Aib]V-NMe2)	200 to 400	> 600
1 to 200	1 to 200	COCCN1C(=O)[C@H](CC(C)C)N=C(c2ccccc2)c2ccc(C(=O)Nc3ccc(C)c(N4Cc5cnc(Nc6ccc(C)nc6)nc5N(C)C4=O)c3)cc21 [Example 42, (S)-3-isobutyl-1-(2-methoxyethyl)-N-(4-methyl-3-(1-methyl-7-((6-methylpyridin-3-yl)amino)-2-oxo-1,4-dihydropyrimido[4,5-d]pyrimidin-3(2H)-yl)phenyl)-2-oxo-5-phenyl-2,3-dihydro-1H-benzo[e][1,4]diazepine-8-carboxamide]	–	–
1 to 200	1 to 200	C=CCCC1=N[C@@H](CC(=O)Nc2ccc(C)c(N3Cc4cnc(Nc5ccc(C)nc5)nc4N(C)C3=O)c2)C(=O)Nc2ccccc21 [Example 44, (S)-2-(5-(but-3-en-1-yl)-2-oxo-2,3-dihydro-1H-benzo[e][1,4]diazepin-3-yl)-N-(4-methyl-3-(1-methyl-7-((6-methylpyridin-3-yl)amino)-2-oxo-1,4-dihydropyrimido[4,5-d]pyrimidin-3(2H)-yl)phenyl)acetamide]	–	–
1 to 200	1 to 200	C=CCCC1=N[C@@H](CC(=O)Nc2ccc(C)c(N3Cc4cnc(Nc5ccc(C)nc5)nc4N(C)C3=O)c2)C(=O)N(Cc2ccccc2)c2ccccc21 [Example 46, (S)-2-(1-benzyl-5-(but-3-en-1-yl)-2-oxo-2,3-dihydro-1H-benzo[e][1,4]diazepin-3-yl)-N-(4-methyl-3-(1-methyl-7-((6-methylpyridin-3-yl)amino)-2-oxo-1,4-dihydropyrimido[4,5-d]pyrimidin-3(2H)-yl)phenyl)acetamide]	–	–
–	–	Cc1ccc(Nc2ncc3c(n2)N(C)C(=O)N(c2cc(C(=O)N[C@H](C(=O)N4CCC[C@H]4C(=O)NCC(=O)N[C@@H](CC(C)C)C(=O)N(C)C)C(C)C)ccc2C)C3)cn1 [Example 6, (S)—N-(2-(((S)-1-(dimethylamino)-4-methyl-1-oxopentan-2-yl)amino)-2-oxoethyl)-1-((4-methyl-3-(1-methyl-7-((6-methylpyridin-3-yl)amino)-2-oxo-1,4-dihydropyrimido[4,5-d]pyrimidin-3(2H)-yl)benzoyl)-L-valyl)pyrrolidine-2-carboxamide] (X1-VPGL-NMe2)	1 to 200	> 600
–	–	Cc1ccc(Nc2ncc3c(n2)N(C)C(=O)N(c2cc(C(=O)N[C@@H](C(=O)N4CCC[C@@H]4C(=O)NC(C)(C)C(=O)N[C@H](CC(C)C)C(=O)N(C)C)C(C)C)ccc2C)C3)cn1 [Example 10, (R)—N-(1-(((R)-1-(dimethylamino)-4-methyl-1-oxopentan-2-yl)amino)-2-methyl-1-oxopropan-2-yl)-1-((4-methyl-3-(1-methyl-7-((6-methylpyridin-3-yl)amino)-2-oxo-1,4-dihydropyrimido[4,5-d]pyrimidin-3(2H)-yl)benzoyl)-D-valyl)pyrrolidine-2-carboxamide] (X1-[dV][dP][Aib][dL]-NMe2)	200 to 400	> 600
1 to 200	> 600	Cc1ccc(Nc2ncc3c(n2)N(C)C(=O)N(c2cc(C(=O)N[C@@H](Cc4ccccc4)C(=O)N4CCC[C@H]4C(=O)NC(C)(C)C(=O)N[C@H](C(=O)N(C)C)C(C)C)ccc2C)C3)cn1 [Example 24, (S)—N-(1-(((S)-1-(dimethylamino)-3-methyl-1-oxobutan-2-yl)amino)-2-methyl-1-oxopropan-2-yl)-1-((4-methyl-3-(1-methyl-7-((6-methylpyridin-3-yl)amino)-2-oxo-1,4-dihydropyrimido[4,5-d]pyrimidin-3(2H)-yl)benzoyl)-L-phenylalanyl)pyrrolidine-2-carboxamide] (X1-FP[Aib]V-NMe2)	–	–
–	–	Cc1ccc(Nc2ncc3c(n2)N(C)C(=O)N(c2cc(C(=O)N[C@H](C(=O)N4CCC[C@@H]4C(=O)NCC(=O)N[C@@H](CC(C)C)C(=O)N(C)C)C(C)C)ccc2C)C3)cn1 [Example 5, (R)—N-(2-(((S)-1-(dimethylamino)-4-methyl-1-oxopentan-2-yl)amino)-2-oxoethyl)-1-((4-methyl-3-(1-methyl-7-((6-methylpyridin-3-yl)amino)-2-oxo-1,4-dihydropyrimido[4,5-d]pyrimidin-3(2H)-yl)benzoyl)-L-valyl)pyrrolidine-2-carboxamide] (X1-V[dP]GL-NMe2)	1 to 200	> 600
> 600	> 600	Cc1ccc(Nc2ncc3c(n2)N(C)C(=O)N(c2cc(C(=O)N[C@H](C(=O)N4CCC[C@H]4C(=O)NC(C)(C)C(=O)N[C@H](C(=O)N(C)C)C(C)C)C(C)C)ccc2C)C3)cn1 [Example 22, (S)—N-(1-(((S)-1-(dimethylamino)-3-methyl-1-oxobutan-2-yl)amino)-2-methyl-1-oxopropan-2-yl)-1-((4-methyl-3-(1-methyl-7-((6-methylpyridin-3-yl)amino)-2-oxo-1,4-dihydropyrimido[4,5-d]pyrimidin-3(2H)-yl)benzoyl)-L-valyl)pyrrolidine-2-carboxamide] (X1-VP[Aib]V-NMe2)	–	–
